Data on 1 molecule can be found in ChEMBL document CHEMBL6134839, “Novel 15-lipoxygenase-1 inhibitor protects cells from RSL3-induced cell death” (Eur J Med Chem, 2025).

A short description of experiment [1]: Inhibition of RSL3-induced lipid peroxidation in human HEK293 cells incubated for 3 hrs by C11-BODIPY581/591 probe based flow cytometry analysis. Type of experiment: functional, cell-based.
Experiment [2] addresses T1, Polyunsaturated fatty acid lipoxygenase ALOX15 (Homo sapiens, UniProt P16050).
T1 sequence (P16050 whole entry): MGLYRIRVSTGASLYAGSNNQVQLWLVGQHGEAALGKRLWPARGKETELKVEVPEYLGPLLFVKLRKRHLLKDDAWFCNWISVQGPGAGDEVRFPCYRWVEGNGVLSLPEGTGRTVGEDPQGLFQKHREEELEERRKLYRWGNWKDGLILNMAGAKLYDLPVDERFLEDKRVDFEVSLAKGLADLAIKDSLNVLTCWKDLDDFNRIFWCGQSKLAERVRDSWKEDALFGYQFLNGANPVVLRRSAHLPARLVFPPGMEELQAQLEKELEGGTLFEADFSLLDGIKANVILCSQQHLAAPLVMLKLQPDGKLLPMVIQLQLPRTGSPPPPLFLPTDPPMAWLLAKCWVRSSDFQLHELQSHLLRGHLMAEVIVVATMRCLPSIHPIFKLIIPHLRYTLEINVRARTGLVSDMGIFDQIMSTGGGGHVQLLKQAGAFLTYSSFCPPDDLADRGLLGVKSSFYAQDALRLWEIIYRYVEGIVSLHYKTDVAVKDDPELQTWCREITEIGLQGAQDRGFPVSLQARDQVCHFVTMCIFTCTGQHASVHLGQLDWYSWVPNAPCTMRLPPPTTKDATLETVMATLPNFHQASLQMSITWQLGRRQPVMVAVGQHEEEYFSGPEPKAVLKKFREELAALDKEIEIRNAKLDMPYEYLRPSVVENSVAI
In words: Inhibition of human 15-LOX-1 using linoleic acid as substrate preincubated for 10 mins followed by substrate addition.

For `c1ccc2c(c1)SCc1c-2[nH]c2ccccc12`, in experiment [1], the response was half-maximal at 1.2 µM (EC50). In addition, the IC50 – broadly, the concentration that gives 50% inhibition – in experiment [2] is 10 µM.
